Laboratory results taken from ChEMBL document CHEMBL5291721, “A preclinical secondary pharmacology resource illuminates target-adverse drug reaction associations of marketed drugs” (Nat Commun, 2023).

What was measured:
[1] = biological target: T1, Amine oxidase [flavin-containing] A (Homo sapiens, UniProt P21397); type: functional
T1 sequence (P21397 whole entry): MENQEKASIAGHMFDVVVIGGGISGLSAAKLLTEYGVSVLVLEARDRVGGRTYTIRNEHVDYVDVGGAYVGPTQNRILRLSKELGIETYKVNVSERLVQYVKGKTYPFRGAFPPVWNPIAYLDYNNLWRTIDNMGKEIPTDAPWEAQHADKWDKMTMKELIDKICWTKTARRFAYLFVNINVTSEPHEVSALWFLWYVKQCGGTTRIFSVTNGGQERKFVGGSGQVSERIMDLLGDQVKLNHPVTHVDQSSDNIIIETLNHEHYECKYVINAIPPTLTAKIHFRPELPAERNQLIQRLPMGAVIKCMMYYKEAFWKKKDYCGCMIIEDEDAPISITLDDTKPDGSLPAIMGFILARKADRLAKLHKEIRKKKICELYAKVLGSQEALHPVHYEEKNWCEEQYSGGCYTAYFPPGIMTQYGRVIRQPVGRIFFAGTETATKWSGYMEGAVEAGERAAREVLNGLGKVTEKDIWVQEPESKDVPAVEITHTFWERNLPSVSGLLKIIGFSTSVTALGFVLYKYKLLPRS

[2] = biological target: Sodium-dependent dopamine transporter (Homo sapiens, UniProt Q01959)
[3] = biological target: T2, Muscarinic acetylcholine receptor M2 (Homo sapiens, UniProt P08172)
T2 sequence (P08172 whole entry): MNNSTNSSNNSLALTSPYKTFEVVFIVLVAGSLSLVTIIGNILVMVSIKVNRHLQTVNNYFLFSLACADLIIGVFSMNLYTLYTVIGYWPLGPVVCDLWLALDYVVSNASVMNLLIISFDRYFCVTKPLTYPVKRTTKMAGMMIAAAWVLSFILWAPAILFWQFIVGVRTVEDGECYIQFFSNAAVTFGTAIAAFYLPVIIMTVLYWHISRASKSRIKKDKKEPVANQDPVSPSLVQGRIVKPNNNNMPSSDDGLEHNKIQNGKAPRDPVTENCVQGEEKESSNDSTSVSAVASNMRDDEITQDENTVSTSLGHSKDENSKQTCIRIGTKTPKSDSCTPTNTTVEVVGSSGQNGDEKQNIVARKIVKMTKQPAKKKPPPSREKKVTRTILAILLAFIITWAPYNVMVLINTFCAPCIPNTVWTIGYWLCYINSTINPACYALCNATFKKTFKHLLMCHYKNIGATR

D(3) dopamine receptor = D(3) dopamine receptor (Homo sapiens, UniProt P35462)
[4] = biological target: T3, Muscarinic acetylcholine receptor M1 (Homo sapiens, UniProt P11229); type: functional, cell-based
T3 sequence (P11229 whole entry): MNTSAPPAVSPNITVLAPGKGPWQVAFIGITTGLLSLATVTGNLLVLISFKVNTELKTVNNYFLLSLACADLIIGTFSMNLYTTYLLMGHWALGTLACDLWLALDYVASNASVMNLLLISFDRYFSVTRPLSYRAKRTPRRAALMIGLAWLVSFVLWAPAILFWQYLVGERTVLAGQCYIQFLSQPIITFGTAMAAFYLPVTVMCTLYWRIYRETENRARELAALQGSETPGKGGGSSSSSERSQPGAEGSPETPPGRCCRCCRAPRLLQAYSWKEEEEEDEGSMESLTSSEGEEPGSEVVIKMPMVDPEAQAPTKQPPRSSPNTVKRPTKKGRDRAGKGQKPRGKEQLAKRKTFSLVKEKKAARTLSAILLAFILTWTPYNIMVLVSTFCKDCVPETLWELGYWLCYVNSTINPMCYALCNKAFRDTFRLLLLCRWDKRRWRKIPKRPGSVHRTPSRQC

Thromboxane A2 receptor = biological target: T4, Thromboxane A2 receptor (Homo sapiens, UniProt P21731); type: functional, cell-based
T4 sequence (P21731 whole entry): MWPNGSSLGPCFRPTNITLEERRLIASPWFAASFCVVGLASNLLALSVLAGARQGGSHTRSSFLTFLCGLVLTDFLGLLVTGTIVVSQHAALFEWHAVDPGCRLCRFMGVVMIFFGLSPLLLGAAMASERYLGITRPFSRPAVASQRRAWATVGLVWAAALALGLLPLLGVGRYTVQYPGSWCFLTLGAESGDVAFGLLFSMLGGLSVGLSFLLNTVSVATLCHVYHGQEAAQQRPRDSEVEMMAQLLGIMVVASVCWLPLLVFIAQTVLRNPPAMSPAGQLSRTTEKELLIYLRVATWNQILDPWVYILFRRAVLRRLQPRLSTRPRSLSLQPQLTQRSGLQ

Histamine H2 receptor = Histamine H2 receptor (Homo sapiens, UniProt P25021); type: functional, cell-based
[5] = biological target: Glutamate receptor ionotropic, NMDA 1 (Rattus norvegicus, UniProt P35439)
[6] = biological target: Sodium-dependent serotonin transporter (Homo sapiens, UniProt P31645)
[7] = biological target: Beta-2 adrenergic receptor (Homo sapiens, UniProt P07550)
[8] = biological target: T5, 5-hydroxytryptamine receptor 1A (Homo sapiens, UniProt P08908); type: functional, cell-based
T5 sequence (P08908 whole entry): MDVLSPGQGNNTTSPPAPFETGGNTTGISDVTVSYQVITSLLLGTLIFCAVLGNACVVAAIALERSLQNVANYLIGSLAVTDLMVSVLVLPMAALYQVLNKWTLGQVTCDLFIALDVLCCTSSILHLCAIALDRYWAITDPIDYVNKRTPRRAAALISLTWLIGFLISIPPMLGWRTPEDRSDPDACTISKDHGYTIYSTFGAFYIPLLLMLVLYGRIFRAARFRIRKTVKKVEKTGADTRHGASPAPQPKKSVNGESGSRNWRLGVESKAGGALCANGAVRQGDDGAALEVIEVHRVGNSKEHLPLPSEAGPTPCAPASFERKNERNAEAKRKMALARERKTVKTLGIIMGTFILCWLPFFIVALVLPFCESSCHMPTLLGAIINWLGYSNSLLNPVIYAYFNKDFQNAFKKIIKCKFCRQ
Note: assay procedure not described here.

Chain of Histamine H2 receptor (P25021 whole entry): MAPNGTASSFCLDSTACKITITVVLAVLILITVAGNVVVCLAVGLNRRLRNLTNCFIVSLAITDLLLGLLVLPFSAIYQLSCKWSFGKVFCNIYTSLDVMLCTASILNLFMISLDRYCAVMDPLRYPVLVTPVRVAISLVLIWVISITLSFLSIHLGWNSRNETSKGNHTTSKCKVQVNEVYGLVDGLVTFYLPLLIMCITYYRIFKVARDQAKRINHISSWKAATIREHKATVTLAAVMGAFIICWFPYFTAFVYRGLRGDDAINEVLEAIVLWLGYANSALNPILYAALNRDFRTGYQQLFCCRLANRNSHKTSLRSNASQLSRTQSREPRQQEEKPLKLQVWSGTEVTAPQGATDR
Chain of Sodium-dependent dopamine transporter (Q01959 whole entry): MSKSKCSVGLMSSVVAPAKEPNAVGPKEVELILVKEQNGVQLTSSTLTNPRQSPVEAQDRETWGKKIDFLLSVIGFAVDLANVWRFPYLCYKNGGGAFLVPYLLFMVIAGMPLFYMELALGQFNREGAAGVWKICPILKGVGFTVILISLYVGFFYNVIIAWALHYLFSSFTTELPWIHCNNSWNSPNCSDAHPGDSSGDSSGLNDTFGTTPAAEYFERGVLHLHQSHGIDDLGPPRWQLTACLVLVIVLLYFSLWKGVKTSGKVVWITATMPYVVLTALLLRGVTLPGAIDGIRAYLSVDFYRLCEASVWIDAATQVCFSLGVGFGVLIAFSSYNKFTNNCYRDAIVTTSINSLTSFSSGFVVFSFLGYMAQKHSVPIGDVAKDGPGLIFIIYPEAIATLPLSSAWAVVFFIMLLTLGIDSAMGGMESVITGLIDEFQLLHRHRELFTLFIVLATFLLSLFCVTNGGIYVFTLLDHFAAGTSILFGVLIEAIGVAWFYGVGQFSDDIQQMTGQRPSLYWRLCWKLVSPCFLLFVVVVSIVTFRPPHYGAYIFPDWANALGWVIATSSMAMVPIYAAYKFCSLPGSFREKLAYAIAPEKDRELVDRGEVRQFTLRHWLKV
Chain of D(3) dopamine receptor (P35462 whole entry): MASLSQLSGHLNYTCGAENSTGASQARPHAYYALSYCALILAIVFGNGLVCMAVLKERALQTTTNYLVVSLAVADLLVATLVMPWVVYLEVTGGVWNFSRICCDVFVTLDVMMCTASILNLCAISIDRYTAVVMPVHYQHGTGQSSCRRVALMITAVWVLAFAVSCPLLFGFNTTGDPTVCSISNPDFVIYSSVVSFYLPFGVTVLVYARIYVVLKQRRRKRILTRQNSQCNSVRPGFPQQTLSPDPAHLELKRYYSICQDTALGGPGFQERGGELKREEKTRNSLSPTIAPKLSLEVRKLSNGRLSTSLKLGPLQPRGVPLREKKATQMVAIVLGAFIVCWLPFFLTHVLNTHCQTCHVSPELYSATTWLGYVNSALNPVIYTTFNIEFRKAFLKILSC
Chain of Sodium-dependent serotonin transporter (P31645 whole entry): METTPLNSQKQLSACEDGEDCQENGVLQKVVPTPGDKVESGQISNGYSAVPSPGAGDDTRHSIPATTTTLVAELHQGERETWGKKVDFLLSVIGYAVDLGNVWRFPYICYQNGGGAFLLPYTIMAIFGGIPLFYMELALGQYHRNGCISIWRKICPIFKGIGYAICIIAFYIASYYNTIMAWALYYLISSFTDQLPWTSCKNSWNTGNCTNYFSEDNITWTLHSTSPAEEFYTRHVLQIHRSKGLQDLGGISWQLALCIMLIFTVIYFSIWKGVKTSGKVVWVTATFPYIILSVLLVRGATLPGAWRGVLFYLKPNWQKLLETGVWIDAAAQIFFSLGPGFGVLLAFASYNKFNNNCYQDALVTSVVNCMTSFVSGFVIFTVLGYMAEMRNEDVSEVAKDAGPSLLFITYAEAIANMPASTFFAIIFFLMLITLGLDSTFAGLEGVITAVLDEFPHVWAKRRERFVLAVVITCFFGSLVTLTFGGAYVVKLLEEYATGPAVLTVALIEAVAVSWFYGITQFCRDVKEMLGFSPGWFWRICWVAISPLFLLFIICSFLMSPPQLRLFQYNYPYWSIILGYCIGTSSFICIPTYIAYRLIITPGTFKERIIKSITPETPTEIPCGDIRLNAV
Chain of Beta-2 adrenergic receptor (P07550 whole entry): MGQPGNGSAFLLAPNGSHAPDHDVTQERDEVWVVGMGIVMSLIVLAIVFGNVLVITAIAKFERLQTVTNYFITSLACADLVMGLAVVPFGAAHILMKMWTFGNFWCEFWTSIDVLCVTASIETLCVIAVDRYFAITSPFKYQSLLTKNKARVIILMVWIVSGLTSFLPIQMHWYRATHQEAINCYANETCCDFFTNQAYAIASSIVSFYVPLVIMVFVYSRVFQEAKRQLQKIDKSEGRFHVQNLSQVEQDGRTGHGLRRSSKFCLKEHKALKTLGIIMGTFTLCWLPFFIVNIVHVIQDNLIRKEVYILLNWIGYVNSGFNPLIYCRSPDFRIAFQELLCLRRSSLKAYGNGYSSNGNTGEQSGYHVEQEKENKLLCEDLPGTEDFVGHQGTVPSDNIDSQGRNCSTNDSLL

Row | Structure (SMILES) | AC50 [1] | AC50 [2] | AC50 [3] | AC50 (D(3) dopamine receptor) | AC50 [4] | AC50 (Thromboxane A2 receptor) | AC50 (Histamine H2 receptor) | AC50 [5] | AC50 [6] | AC50 [7] | AC50 [8]
1 | COc1cccc2c1C(=O)c1c(O)c3c(c(O)c1C2=O)C[C@@](O)(C(=O)CO)C[C@@H]3O[C@H]1C[C@H](N)[C@H](O[C@@H]2CCCCO2)[C@H](C)O1 [PIRARUBICIN] | > 30 µM | > 30 µM | > 30 µM | > 30 µM | > 1 µM | > 10 µM |  |  |  |  | 
2 | CCOC(=O)Nc1ccc(NCc2ccc(F)cc2)nc1N [FLUPIRTINE] |  |  |  |  |  |  | > 30 µM | > 30 µM | > 30 µM | > 30 µM | 22 µM
3 | CC(C)Nc1cccnc1N1CCN(C(=O)c2cc3cc(NS(C)(=O)=O)ccc3[nH]2)CC1 [DELAVIRDINE] | 24 µM | > 30 µM | > 30 µM | > 30 µM | > 30 µM | 23.2 µM |  |  |  |  | 
4 | N[C@@H](Cc1cc(I)c(Oc2cc(I)c(O)c(I)c2)c(I)c1)C(=O)O [LEVOTHYROXINE] |  |  |  |  |  |  | > 30 µM | > 30 µM | > 30 µM |  | > 30 µM
5 | CO[C@@]1(NC(=O)C(C(=O)O)c2ccc(O)cc2)C(=O)N2C(C(=O)O)=C(CSc3nnnn3C)CO[C@@H]21 (stereo partly specified) [MOXALACTAM] | > 30 µM | > 30 µM | > 30 µM | > 30 µM | > 30 µM | > 30 µM |  |  |  |  | 
6 | CC(C)/N=c1\cc2n(-c3ccc(Cl)cc3)c3ccccc3nc-2cc1Nc1ccc(Cl)cc1 [CLOFAZIMINE] |  |  |  |  |  |  | > 30 µM | 22 µM | 20 µM | > 30 µM | > 30 µM
7 | Cc1cccc(C)c1NC(=O)c1cc(S(N)(=O)=O)c(Cl)cc1O [XIPAMIDE] | > 30 µM | > 30 µM | > 30 µM | > 30 µM | > 30 µM | > 30 µM |  |  |  |  | 
8 | C=CCOc1ccc(CC(=O)O)cc1Cl [ALCLOFENAC] | > 30 µM | > 30 µM | > 30 µM |  | > 30 µM | > 30 µM |  |  |  |  | 
9 | CC(=O)SCC(Cc1ccccc1)C(=O)NCC(=O)OCc1ccccc1 (stereo unspecified) [RACECADOTRIL] |  |  |  |  |  |  | > 30 µM | > 30 µM | > 30 µM | > 10 µM | > 30 µM
10 | Cc1ccc(C(C)C)c(O)c1 [THYMOL] | > 30 µM | > 30 µM | > 30 µM | > 30 µM | > 30 µM | > 30 µM |  |  |  |  | 
11 | N#Cc1ccnc(N2C(=O)CC[C@H]2C(=O)N(c2cncc(F)c2)[C@H](C(=O)NC2CC(F)(F)C2)c2ccccc2Cl)c1 [IVOSIDENIB] | > 30 µM | > 30 µM | > 30 µM | > 30 µM | > 30 µM | > 30 µM |  |  |  |  | 
12 | C[C@@H](CN1CC(=O)NC(=O)C1)N1CC(=O)NC(=O)C1 [DEXRAZOXANE] | > 30 µM | > 30 µM | > 30 µM | > 30 µM | > 30 µM | > 30 µM |  |  |  |  | 
13 | O=c1[nH]c2ccccc2n1CCN1CCN(c2cccc(C(F)(F)F)c2)CC1 [FLIBANSERIN] | > 30 µM | > 30 µM | > 30 µM | 0.286 µM | 10.1 µM | 10.5 µM |  |  |  |  | 
14 | CNC1(C)C2CCC(C2)C1(C)C (stereo unspecified) [MECAMYLAMINE] |  |  |  |  |  |  | > 10 µM | > 10 µM | > 10 µM | > 10 µM | > 10 µM
15 | O=C1[C@@H]2[C@H]3CC[C@H](C3)[C@@H]2C(=O)N1C[C@@H]1CCCC[C@H]1CN1CCN(c2nsc3ccccc23)CC1 [LURASIDONE] | > 30 µM |  |  | 0.0042 µM |  | > 30 µM |  |  | > 30 µM |  | 
16 | C[C@H](Cn1cnc2c(N)ncnc21)OCP(=O)(O)O [TENOFOVIR ANHYDROUS] |  |  |  |  |  |  | > 30 µM | > 30 µM | > 30 µM | > 30 µM | > 30 µM
17 | OCCOCCN1CCN(C(c2ccccc2)c2ccc(Cl)cc2)CC1 (stereo unspecified) [HYDROXYZINE] |  |  |  |  |  |  | > 10 µM | > 10 µM | > 10 µM | > 10 µM | > 10 µM
18 | C[C@]12CCC(=O)C=C1CC[C@H]1[C@@H]3CC[C@](O)(C(=O)CO)[C@@]3(C)C[C@H](O)[C@@]12F [FLUDROCORTISONE] |  |  |  |  |  |  | > 10 µM | > 10 µM | > 30 µM | > 10 µM | > 10 µM
19 | CC[N+](CC)(CCNC(=O)C(=O)NCC[N+](CC)(CC)Cc1ccccc1Cl)Cc1ccccc1Cl [AMBENONIUM] |  |  |  |  |  |  | > 30 µM | > 30 µM | 6.1 µM |  | > 30 µM
20 | CC(C)C[C@H](NC(=O)[C@H](Cc1ccccc1)NC(=O)c1cnccn1)B(O)O [BORTEZOMIB] |  |  |  |  |  |  | > 30 µM | > 30 µM | > 30 µM | > 30 µM | > 30 µM
21 | CCN(CC)CCn1c(=O)c(Cc2ccc(OC)cc2)nc2ccccc21 [CAROVERINE] |  |  |  |  |  |  | > 30 µM | > 30 µM | > 30 µM | > 30 µM | > 30 µM
22 | C[C@H](Nc1ncnc2[nH]cnc12)c1cc2cccc(Cl)c2c(=O)n1-c1ccccc1 [DUVELISIB] | > 30 µM | > 30 µM | > 30 µM | > 30 µM |  | 15.1 µM |  |  | > 30 µM |  | > 30 µM
23 | CN(C)CCOC(c1ccc(Cl)cc1)c1ccccn1 (stereo unspecified) [CARBINOXAMINE] |  |  |  |  |  |  | > 30 µM | > 30 µM | 3 µM |  | > 30 µM
24 | CCOc1ccccc1OCCN[C@H](C)Cc1ccc(OC)c(S(N)(=O)=O)c1 [TAMSULOSIN] |  |  |  |  |  |  | > 10 µM | > 10 µM | > 30 µM | 2.2 µM | 0.02 µM
25 | C=CC1=C(C(=O)O)N2C(=O)[C@@H](NC(=O)/C(=N\O)c3csc(N)n3)[C@H]2SC1 |  |  |  |  |  |  | > 10 µM | > 10 µM | > 30 µM | > 30 µM | > 10 µM
26 | NC(=O)C1(N2CCCCC2)CCN(CCCN2c3ccccc3CCc3ccccc32)CC1 [CARPIPRAMINE] | > 30 µM | 2.94 µM | 4.39 µM | 0.0207 µM | 22 µM |  |  |  |  |  | 
27 | CN1CCN(C(c2ccccc2)c2ccc(Cl)cc2)CC1 (stereo unspecified) [CHLORCYCLIZINE] | > 30 µM | 0.225 µM | 0.505 µM | 0.449 µM | > 30 µM |  |  |  |  |  | 
